The test system of one assay is CD8+ T-cells. Put plainly: In vitro T-cell priming assay with aAPCs loaded with peptide/MHC and anti-CD28, pMHC multimer readout. Conditions: in vitro immunogenicity, HLA-A*02 restricted peptides. The class given is cell-based, human. An excerpt:
In order to obtain information regarding the immunogenicity of the TUMAPs of the present invention, the inventors performed investigations using an in vitro T-cell priming assay based on repeated stimulations of CD8+ T-cells with artificial antigen presenting cells (aAPCs) loaded with peptide/MHC complexes and anti-CD28 antibody.
In order to perform in vitro stimulations by artificial antigen presenting cells loaded with peptide-MHC complex (pMHC) and anti-CD28 antibody, the inventors first isolated CD8+ T-cells from fresh HLA-A*02 leukopheresis products via positive selection using CD8 microbeads (Miltenyi Biotec, Bergisch-Gladbach, Germany) of healthy donors obtained from the University clinics Mannheim, Germany, after informed consent.
PBMCs and isolated CD8+ lymphocytes were incubated in T-cell medium (TCM) until use consisting of RPMI-Glutamax (Invitrogen, Karlsruhe, Germany) supplemented with 10% heat inactivated human AB serum (PAN-Biotech, Aidenbach, Germany), 100 U/ml Penicillin/100 μg/ml Streptomycin (Cambrex, Cologne, Germany), 1 mM sodium pyruvate (CC Pro, Oberdorla, Germany), 20 μg/ml Gentamycin (Cambrex). 2.5 ng/ml IL-7 (PromoCell, Heidelberg, Germany) and 10 U/ml IL-2 (Novartis Pharma, Nürnberg, Germany) were also added to the TCM at this step.
Generation of pMHC/anti-CD28 coated beads, T-cell stimulations and readout was performed in a highly defined in vitro system using four different pMHC molecules per stimulation condition and 8 different pMHC molecules per readout condition.
The purified co-stimulatory mouse IgG2a anti human CD28 Ab 9.3 (Jung et al., 1987) was chemically biotinylated using Sulfo-N-hydroxysuccinimidobiotin as recommended by the manufacturer (Perbio, Bonn, Germany). Beads used were 5.6 μm diameter streptavidin coated polystyrene particles (Bangs Laboratories, Illinois, USA).
800,000 beads/200 μl were coated in 96-well plates in the presence of 4×12.5 ng different biotin-pMHC, washed and 600 ng biotin anti-CD28 were added subsequently in a volume of 200 μl. Stimulations were initiated in 96-well plates by co-incubating 1×10^6 CD8+ T-cells with 2×10^5 washed coated beads in 200 μl TCM supplemented with 5 ng/ml IL-12 (PromoCell) for 3 days at 37° C. Half of the medium was then exchanged by fresh TCM supplemented with 80 U/ml IL-2 and incubating was continued for 4 days at 37° C. This stimulation cycle was performed for a total of three times. For the pMHC multimer readout using 8 different pMHC molecules per condition, a two-dimensional combinatorial coding approach was used as previously described (Andersen et al., 2012) with minor modifications encompassing coupling to 5 different fluorochromes. Finally, multimeric analyses were performed by staining the cells with Live/dead near IR dye (Invitrogen, Karlsruhe, Germany), CD8-FITC antibody clone SK1 (BD, Heidelberg, Germany) and fluorescent pMHC multimers. For analysis, a BD LSRII SORP cytometer equipped with appropriate lasers and filters was used. Peptide specific cells were calculated as percentage of total CD8+ cells. Evaluation of multimeric analysis was done using the FlowJo software (Tree Star, Oregon, USA). In vitro priming of specific multimer+ CD8+ lymphocytes was detected by comparing to negative control stimulations.

Another assay has as its target HLA-A*02:01 (Homo sapiens, UniProt P04439, D140Y/D185E/D98H/E176V/E277Q/G131W/G231S/I119V/I121R/I166T/I218V/L300P/L318F/N151K/N90K/P208A/P217A/Q86G/Q94H/R138H/R169H/T345S). Put plainly: MHC binding assay (UV-ligand exchange, beta2m ELISA, peptide exchange yield). Conditions: MHC class I binding score; binding to HLA-A*02:01 ranged by peptide exchange yield (UV-ligand exchange, β2m ELISA). The method in brief: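 Exchange yield, UV-ligand exchange: 100-fold diluted samples on streptavidin plates, 1 h at 37 °C; HRP anti-β2m 1 h at 37 °C; TMB read at 450 nm.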

As for “32 (KLNTETFGV; listed as Homo sapiens) [compound 32]”, the Wells positive result with CD8+ T-cells is “″++″ (20%-49% = ++)”. Moreover, the Peptide exchange entry in the assay with HLA-A*02:01 is recorded as “″++″ (≥20% = ++)”.

On to “37 (GLFAGLGGAGA; listed as Homo sapiens) [compound 37]”, for which, in the assay with CD8+ T-cells, the Wells positive entry is “″+″ (<20% = +)”. Besides, the Peptide exchange result with HLA-A*02:01 was “″+++″ (≥50 = +++)”.

For “38 (SLAPTPVSA; listed as Homo sapiens) [compound 38]”, the Wells positive result in the assay on CD8+ T-cells is reported as “″+″ (<20% = +)”. For the same substance, the Peptide exchange entry in the assay with HLA-A*02:01 was “″++″ (≥20% = ++)”.

Take “42 (SILDDSFKL; listed as Homo sapiens) [compound 42]”: in the assay with CD8+ T-cells, the Wells positive result is recorded as “″+″ (<20% = +)”. Also, the Peptide exchange entry with HLA-A*02:01 is given as “″++++″ (≥75% = ++++)”.

For the substance “47 (KLYERCEVV; listed as Homo sapiens) [compound 47]”, the Wells positive entry with CD8+ T-cells is “″+″ (<20% = +)”. Also, in the assay with HLA-A*02:01, the Peptide exchange result was “″++″ (≥20% = ++)”.

“59 (LLTDNVVKL; listed as Homo sapiens) [compound 59]”: the Wells positive entry with CD8+ T-cells is listed as “″+″ (<20% = +)”. In addition, the Peptide exchange entry in the assay with HLA-A*02:01 is “″+++″ (≥50 = +++)”.

Regarding “64 (KTLGKLWRL; listed as Homo sapiens) [compound 64]”, the Wells positive result in the assay with CD8+ T-cells was “″++++″ (>= 70% = ++++)”. For the same substance, the Peptide exchange entry with HLA-A*02:01 was “″++″ (≥20% = ++)”.

For “123 (KTLERSYLL; listed as Homo sapiens) [compound 123]”, in the assay on CD8+ T-cells, the Wells positive entry was “″+″ (<20% = +)”. The Peptide exchange entry with HLA-A*02:01 is recorded as “″++″ (≥20% = ++)”.

For the substance “124 (RVLPPSALQSV; listed as Homo sapiens) [compound 124]”, in the assay on CD8+ T-cells, the Wells positive result is given as “″+″ (<20% = +)”. The Peptide exchange entry in the assay with HLA-A*02:01 is given as “″+++″ (≥50 = +++)”.

As to “127 (RLAELTVDEFLA; listed as Homo sapiens) [compound 127]”, the Wells positive entry in the assay on CD8+ T-cells is given as “″+″ (<20% = +)”. For the same substance, the Peptide exchange entry with HLA-A*02:01 is listed as “″+++″ (≥50 = +++)”.

Turning to “132 (ALLNAILHSA; listed as Homo sapiens) [compound 132]”, the Wells positive entry in the assay with CD8+ T-cells is recorded as “″+″ (<20% = +)”. In addition, in the assay with HLA-A*02:01, the Peptide exchange entry is listed as “″++″ (≥20% = ++)”.

For the substance “133 (RTFEKIEEV; listed as Homo sapiens) [compound 133]”, the Wells positive entry in the assay with CD8+ T-cells is “″+″ (<20% = +)”. In the assay with HLA-A*02:01, the Peptide exchange entry is recorded as “″++″ (≥20% = ++)”.

For “136 (KLFDIFSQQV; listed as Homo sapiens) [compound 136]”, the Wells positive result in the assay on CD8+ T-cells is reported as “″++″ (20%-49% = ++)”. Moreover, the Peptide exchange entry in the assay with HLA-A*02:01 was “″+++″ (≥50 = +++)”.

On to “141 (AVIEHLERL; listed as Homo sapiens) [compound 141]”, for which the Wells positive result in the assay on CD8+ T-cells is given as “″+″ (<20% = +)”. Also, in the assay with HLA-A*02:01, the Peptide exchange entry was “″++++″ (≥75% = ++++)”.

On to “142 (SLVQRVETI; listed as Homo sapiens) [compound 142]”, for which, in the assay with CD8+ T-cells, the Wells positive entry was “″+″ (<20% = +)”. In addition, the Peptide exchange entry with HLA-A*02:01 is “″+++″ (≥50 = +++)”.

Regarding “150 (RLADLEALKV; listed as Homo sapiens) [compound 150]”, the Wells positive entry with CD8+ T-cells was “″++″ (20%-49% = ++)”. Further, in the assay with HLA-A*02:01, the Peptide exchange entry was “″+++″ (≥50 = +++)”.

These data come from patent publication US10221225B2, “Peptides and combination of peptides and scaffolds thereof for use in immunotherapy against colorectal carcinoma (CRC) and other cancers” (immatics biotechnologies GmbH, priority 2015, dated 2019).
